The values that follow come from the supplement of paper PMC10307832.

Common to all, as to assay: relative viability (nuclei count vs DMSO), 5 days (fraction); higher = more cells survive
Compound in the assay “R406 + Dasatinib”: COc1cc(Nc2ncc(F)c(Nc3ccc4c(n3)NC(=O)C(C)(C)O4)n2)cc(OC)c1OC [R406] + Cc1nc(Nc2ncc(C(=O)Nc3c(C)cccc3Cl)s2)cc(N2CCN(CCO)CC2)n1 [Dasatinib] (partner 0.075 µM)
The essentials:
(§1)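 Relative viability divides the nuclei count in treated wells by that in vehicle wells. Lung cancer cell lines were seeded in 1536-well plates, dosed by pin tool the next day, and fixed and stained after 5 days in one step with final 0.05% Triton X-100, 1% formaldehyde and 1 ug/ml Hoechst. Dosing was a single drug or a fixed anchor-drug dose plus five library-drug doses (not always all listed) in √10 steps, and values are medians of duplicate plates imaged at 4×.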

Compound in the assay “Daporinad + Bortezomib”: O=C(/C=C/c1cccnc1)NCCCCC1CCN(C(=O)c2ccccc2)CC1 [Daporinad] + CC(C)C[C@H](NC(=O)[C@H](Cc1ccccc1)NC(=O)c1cnccn1)B(O)O [Bortezomib] (partner 0.002 µM)
The procedure, abridged: as §1

Compound in the assay “Daporinad + Tozasertib”: O=C(/C=C/c1cccnc1)NCCCCC1CCN(C(=O)c2ccccc2)CC1 [Daporinad] + Cc1cc(Nc2cc(N3CCN(C)CC3)nc(Sc3ccc(NC(=O)C4CC4)cc3)n2)n[nH]1 [Tozasertib] (partner 0.1 µM)
The essentials:
as §1

Compound in the assay “Daporinad + Pemetrexed”: O=C(/C=C/c1cccnc1)NCCCCC1CCN(C(=O)c2ccccc2)CC1 [Daporinad] + Nc1nc2[nH]cc(CCc3ccc(C(=O)N[C@@H](CCC(=O)O)C(=O)O)cc3)c2c(=O)[nH]1 [Pemetrexed] (partner 0.2 µM)
The essentials:
as §1

Take NCI-H1355: the relative viability with R406 + Dasatinib (first compound 0.08 µM) came to 0.754; with R406 + Dasatinib (first compound 0.253 µM), 0.79; with R406 + Dasatinib (first compound 0.8 µM), 0.777; with R406 + Dasatinib (first compound 2.53 µM), 0.491; with R406 + Dasatinib (first compound 8 µM), 0.32; in the assay with Daporinad + Bortezomib (first compound 0.0005 µM) it was 1.16. In addition, the relative viability with Daporinad + Bortezomib (first compound 0.001581 µM) is 1.2; with Daporinad + Bortezomib (first compound 0.005 µM) it was 1.35; with Daporinad + Bortezomib (first compound 0.01581 µM) it was 1.07; with Daporinad + Tozasertib (first compound 0.0005 µM) it was 0.519; with Daporinad + Tozasertib (first compound 0.001581 µM), 0.558; with Daporinad + Tozasertib (first compound 0.005 µM), 0.58. In addition, the relative viability turned out to be 0.631 with Daporinad + Tozasertib (first compound 0.01581 µM); 1 in the assay with Daporinad + Pemetrexed (first compound 0.0005 µM); 1.1 with Daporinad + Pemetrexed (first compound 0.001581 µM); 1.03 with Daporinad + Pemetrexed (first compound 0.005 µM); 0.873 in the assay with Daporinad + Pemetrexed (first compound 0.01581 µM).

On to NCI-H1437, for which the relative viability in the assay with R406 + Dasatinib (first compound 0.08 µM) stood at 0.439; with R406 + Dasatinib (first compound 0.253 µM) it was 0.408; with R406 + Dasatinib (first compound 0.8 µM), 0.369; with R406 + Dasatinib (first compound 2.53 µM) it was 0.286; with R406 + Dasatinib (first compound 8 µM), 0.131; with Daporinad + Bortezomib (first compound 0.0005 µM), 0.414. Further, the relative viability in the assay with Daporinad + Bortezomib (first compound 0.001581 µM) was 0.629; with Daporinad + Bortezomib (first compound 0.005 µM), 0.561; in the assay with Daporinad + Bortezomib (first compound 0.01581 µM) it was 0.554; with Daporinad + Tozasertib (first compound 0.0005 µM) it was 0.49; with Daporinad + Tozasertib (first compound 0.001581 µM) it was 0.401; in the assay with Daporinad + Tozasertib (first compound 0.005 µM), 0.405. The relative viability in the assay with Daporinad + Tozasertib (first compound 0.01581 µM) was determined as 0.4; with Daporinad + Pemetrexed (first compound 0.0005 µM), 0.312; with Daporinad + Pemetrexed (first compound 0.001581 µM), 0.313; in the assay with Daporinad + Pemetrexed (first compound 0.005 µM), 0.316; in the assay with Daporinad + Pemetrexed (first compound 0.01581 µM) it was 0.332.

For NCI-H1650, the relative viability with R406 + Dasatinib (first compound 0.08 µM) is 0.302; with R406 + Dasatinib (first compound 0.253 µM), 0.362; with R406 + Dasatinib (first compound 0.8 µM), 0.288; with R406 + Dasatinib (first compound 2.53 µM), 0.16; in the assay with R406 + Dasatinib (first compound 8 µM), 0.168; in the assay with Daporinad + Bortezomib (first compound 0.0005 µM), 0.182. Besides, the relative viability with Daporinad + Bortezomib (first compound 0.001581 µM) is 0.222; with Daporinad + Bortezomib (first compound 0.005 µM) it was 0.219; with Daporinad + Bortezomib (first compound 0.01581 µM) it was 0.187; with Daporinad + Tozasertib (first compound 0.0005 µM), 0.387; with Daporinad + Tozasertib (first compound 0.001581 µM) it was 0.44; in the assay with Daporinad + Tozasertib (first compound 0.005 µM) it was 0.461. Also, the relative viability was determined as 0.275 in the assay with Daporinad + Tozasertib (first compound 0.01581 µM); 0.426 with Daporinad + Pemetrexed (first compound 0.0005 µM); 0.395 with Daporinad + Pemetrexed (first compound 0.001581 µM); 0.458 in the assay with Daporinad + Pemetrexed (first compound 0.005 µM); 0.391 with Daporinad + Pemetrexed (first compound 0.01581 µM).

As for NCI-H1651, the relative viability was 0.402 with R406 + Dasatinib (first compound 0.08 µM); 0.468 with R406 + Dasatinib (first compound 0.253 µM); 0.451 with R406 + Dasatinib (first compound 0.8 µM); 0.221 with R406 + Dasatinib (first compound 2.53 µM); 0.198 in the assay with R406 + Dasatinib (first compound 8 µM); 0.953 with Daporinad + Bortezomib (first compound 0.0005 µM). Also, the relative viability in the assay with Daporinad + Bortezomib (first compound 0.001581 µM) came out at 0.952; with Daporinad + Bortezomib (first compound 0.005 µM) it was 1.01; with Daporinad + Bortezomib (first compound 0.01581 µM), 0.788; with Daporinad + Tozasertib (first compound 0.0005 µM), 0.615; with Daporinad + Tozasertib (first compound 0.001581 µM), 0.814; with Daporinad + Tozasertib (first compound 0.005 µM), 0.601. For the same cell line, the relative viability with Daporinad + Tozasertib (first compound 0.01581 µM) was determined as 0.663; in the assay with Daporinad + Pemetrexed (first compound 0.0005 µM) it was 0.602; with Daporinad + Pemetrexed (first compound 0.001581 µM), 0.557; with Daporinad + Pemetrexed (first compound 0.005 µM) it was 0.659; with Daporinad + Pemetrexed (first compound 0.01581 µM) it was 0.545.

For the cell line NCI-H1666, the relative viability amounted to 0.811 in the assay with R406 + Dasatinib (first compound 0.08 µM); 0.943 in the assay with R406 + Dasatinib (first compound 0.253 µM); 0.891 with R406 + Dasatinib (first compound 0.8 µM); 0.648 with R406 + Dasatinib (first compound 2.53 µM); 0.409 with R406 + Dasatinib (first compound 8 µM); 0.846 with Daporinad + Bortezomib (first compound 0.0005 µM). The relative viability in the assay with Daporinad + Bortezomib (first compound 0.001581 µM) amounted to 0.93; with Daporinad + Bortezomib (first compound 0.005 µM), 0.9; in the assay with Daporinad + Bortezomib (first compound 0.01581 µM) it was 0.742; with Daporinad + Tozasertib (first compound 0.0005 µM), 0.619; with Daporinad + Tozasertib (first compound 0.001581 µM), 0.635; with Daporinad + Tozasertib (first compound 0.005 µM), 0.655. For the same cell line, the relative viability amounted to 0.701 in the assay with Daporinad + Tozasertib (first compound 0.01581 µM); 0.902 in the assay with Daporinad + Pemetrexed (first compound 0.0005 µM); 0.839 with Daporinad + Pemetrexed (first compound 0.001581 µM); 0.862 in the assay with Daporinad + Pemetrexed (first compound 0.005 µM); 0.806 with Daporinad + Pemetrexed (first compound 0.01581 µM).

For NCI-H1734, the relative viability with R406 + Dasatinib (first compound 0.08 µM) came out at 0.537; with R406 + Dasatinib (first compound 0.253 µM), 0.559; in the assay with R406 + Dasatinib (first compound 0.8 µM), 0.459; with R406 + Dasatinib (first compound 2.53 µM), 0.393; with R406 + Dasatinib (first compound 8 µM) it was 0.27; in the assay with Daporinad + Bortezomib (first compound 0.0005 µM), 0.937. Also, the relative viability in the assay with Daporinad + Bortezomib (first compound 0.001581 µM) was 0.967; in the assay with Daporinad + Bortezomib (first compound 0.005 µM) it was 0.888; with Daporinad + Bortezomib (first compound 0.01581 µM), 0.333; with Daporinad + Tozasertib (first compound 0.0005 µM) it was 0.283; with Daporinad + Tozasertib (first compound 0.001581 µM) it was 0.262; in the assay with Daporinad + Tozasertib (first compound 0.005 µM), 0.285. Further, the relative viability with Daporinad + Tozasertib (first compound 0.01581 µM) was determined as 0.263; in the assay with Daporinad + Pemetrexed (first compound 0.0005 µM), 0.473; with Daporinad + Pemetrexed (first compound 0.001581 µM), 0.422; with Daporinad + Pemetrexed (first compound 0.005 µM), 0.425; in the assay with Daporinad + Pemetrexed (first compound 0.01581 µM) it was 0.353.

On to NCI-H1755, for which the relative viability in the assay with R406 + Dasatinib (first compound 0.08 µM) worked out at 0.401; in the assay with R406 + Dasatinib (first compound 0.253 µM) it was 0.508; in the assay with R406 + Dasatinib (first compound 0.8 µM), 0.407; with R406 + Dasatinib (first compound 2.53 µM), 0.264; in the assay with R406 + Dasatinib (first compound 8 µM) it was 0.135; with Daporinad + Bortezomib (first compound 0.0005 µM), 0.928. The relative viability with Daporinad + Bortezomib (first compound 0.001581 µM) came to 0.969; in the assay with Daporinad + Bortezomib (first compound 0.005 µM) it was 0.935; with Daporinad + Bortezomib (first compound 0.01581 µM) it was 0.971; with Daporinad + Tozasertib (first compound 0.0005 µM), 0.449; with Daporinad + Tozasertib (first compound 0.001581 µM), 0.544; with Daporinad + Tozasertib (first compound 0.005 µM) it was 0.533. Besides, the relative viability was 0.638 with Daporinad + Tozasertib (first compound 0.01581 µM); 0.421 with Daporinad + Pemetrexed (first compound 0.0005 µM); 0.397 with Daporinad + Pemetrexed (first compound 0.001581 µM); 0.454 in the assay with Daporinad + Pemetrexed (first compound 0.005 µM); 0.469 in the assay with Daporinad + Pemetrexed (first compound 0.01581 µM).

As to NCI-H1915, the relative viability with R406 + Dasatinib (first compound 0.08 µM) was 0.301; with R406 + Dasatinib (first compound 0.253 µM) it was 0.321; with R406 + Dasatinib (first compound 0.8 µM), 0.31; in the assay with R406 + Dasatinib (first compound 8 µM), 0.269; in the assay with Daporinad + Bortezomib (first compound 0.0005 µM), 0.987; with Daporinad + Bortezomib (first compound 0.001581 µM), 1.05. The relative viability was 0.961 with Daporinad + Bortezomib (first compound 0.005 µM); 0.883 with Daporinad + Bortezomib (first compound 0.01581 µM); 0.476 with Daporinad + Tozasertib (first compound 0.0005 µM); 0.401 with Daporinad + Tozasertib (first compound 0.001581 µM); 0.485 in the assay with Daporinad + Tozasertib (first compound 0.005 µM); 0.494 with Daporinad + Tozasertib (first compound 0.01581 µM). The relative viability in the assay with Daporinad + Pemetrexed (first compound 0.0005 µM) amounted to 0.474; with Daporinad + Pemetrexed (first compound 0.001581 µM), 0.505; with Daporinad + Pemetrexed (first compound 0.005 µM) it was 0.499; in the assay with Daporinad + Pemetrexed (first compound 0.01581 µM), 0.174.
